Converted amounts (≈) assume the structure as drawn.
Assays:
[1] = test system: B16; experiment: Cytotoxicity expressed as inhibitory concentration required to reduce the cell growth of B16 murine melanoma cell line; type: functional, cell-based; conditions: Mus musculus
[2] = test system: HCT-116; experiment: Cytotoxicity expressed as inhibitory concentration required to reduce the cell growth of HCT116 human colon carcinoma cell line; type: functional, cell-based
[3] = test system: A-431; experiment: Cytotoxicity expressed as inhibitory concentration required to reduce the cell growth of A431 human epidermal carcinoma cell line; type: functional, cell-based
[4] = Inhibition ratio expressed as percentage showing significant anti-tumor activity in BDF1 mice bearing Lewis lung carcinoma cells was determined; type: functional

Row | Compound | IC50 [1] [µg/mL] | IC50 [2] [µg/mL] | IC50 [3] [µg/mL] | Ratio [4]
1 | COc1ccc(C2=C(c3cc(OC)c(OC)c(OC)c3)C(=O)C=C2)cc1 | 0.011 (≈ 0.0312 µM) | 0.013 (≈ 0.0369 µM) |  | 
2 | COc1ccc(C2=C(c3cc(OC)c(OC)c(OC)c3)C(O)CC2)cc1 (configuration not stated) | 0.039 (≈ 0.109 µM) | 0.045 (≈ 0.126 µM) |  | 
3 | COc1cc(C2=C(c3ccc4ccccc4c3)CCC2=O)cc(OC)c1OC | 0.029 (≈ 0.0774 µM) | 0.031 (≈ 0.0828 µM) | 0.034 (≈ 0.0908 µM) | 
4 | COc1ccc(C2=C(c3cc(OC)c(OC)c(OC)c3)CCC2)cc1 | > 1 | > 1 |  | 
5 | COc1cccc2c1C(=O)c1c(O)c3c(c(O)c1C2=O)C[C@@](O)(C(=O)CO)C[C@@H]3O[C@H]1C[C@H](N)[C@H](O)[C@H](C)O1 [DOXORUBICIN] |  |  | 0.117 (≈ 0.215 µM) | 
6 | COc1ccc(C2=C(c3cc(OC)c(OC)c(OC)c3)C(=O)CC2)cc1O | 0.013 (≈ 0.0351 µM) | 0.012 (≈ 0.0324 µM) | 0.009 (≈ 0.0243 µM) | 
7 | COc1ccc(C2=C(c3cc(OC)c(OC)c(OC)c3)COC2)cc1 | > 1 | > 1 |  | 
8 | COc1ccc(C2=C(c3cc(OC)c(OC)c(OC)c3)C(=O)CC2)cc1N | 0.008 (≈ 0.0217 µM) | 0.008 (≈ 0.0217 µM) | 0.009 (≈ 0.0244 µM) | 59
9 | COc1ccc(C2=C(c3cc(OC)c(OC)c(OC)c3)C(=O)CC2)cc1 | 0.015 (≈ 0.0423 µM) | 0.021 (≈ 0.0593 µM) | 0.021 (≈ 0.0593 µM) | 

Source: ChEMBL document CHEMBL1135188, “Synthesis and anti-tumor activity of novel combretastatins: combretocyclopentenones and related analogues” (Bioorg Med Chem Lett, 2002)
